Data from PubChem BioAssay AID248 (DTP/NCI, 2004).
Several values for one entry are separate records, joined by “and”; a condition that tells them apart may be missing. Equal entries are not always repeated. Toxic doses and inconclusive results are not listed. No stated cut-off is given here; in the data, active means T/C of 150% or more; inactive means T/C below 125%.

Test system: L1210 leukemia ip in BDF1 mice, survival T/C
Test: NCI In Vivo Anticancer Drug Screen. Data for tumor model L1210 Leukemia (intraperitoneal) in B6D2F1 (BDF1) mice
Conditions: endpoint: mean survival time, higher = longer survival
Summary of the method: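 Tumor was transplanted into mice, which were then dosed with test compound or vehicle alone. Survival was recorded for each group, and the treated figure was expressed relative to the control figure.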

[1] = dose: 100.0 mg/kg/injection, schedule: Q04DX003 (ip), vehicle: Klucel (hydroxypropylcellulose) (HPC)
[2] = dose: 100.0 mg/kg/injection, schedule: Q04DX003 (ip), vehicle: saline
[3] = dose: 200.0 mg/kg/injection, schedule: Q04DX003 (ip), vehicle: saline
[4] = dose: 400.0 mg/kg/injection, schedule: Q04DX003 (ip), vehicle: saline
[5] = dose: 50.0 mg/kg/injection, schedule: Q01DX009 (ip), vehicle: saline
[6] = dose: 100.0 mg/kg/injection, schedule: Q01DX009 (ip), vehicle: saline
[7] = dose: 200.0 mg/kg/injection, schedule: Q01DX009 (ip), vehicle: saline
[8] = dose: 400.0 mg/kg/injection, schedule: Q01DX009 (ip), vehicle: saline
[9] = dose: 100.0 mg/kg/injection, schedule: Q04DX002 (ip), vehicle: Klucel (hydroxypropylcellulose) (HPC)
[10] = dose: 200.0 mg/kg/injection, schedule: Q04DX002 (ip), vehicle: Klucel (hydroxypropylcellulose) (HPC)
[11] = dose: 400.0 mg/kg/injection, schedule: Q04DX002 (ip), vehicle: Klucel (hydroxypropylcellulose) (HPC)
[12] = dose: 50.0 mg/kg/injection, schedule: Q01DX009 (ip), vehicle: saline with Tween-80
[13] = dose: 100.0 mg/kg/injection, schedule: Q01DX009 (ip), vehicle: saline with Tween-80
[14] = dose: 200.0 mg/kg/injection, schedule: Q01DX009 (ip), vehicle: saline with Tween-80

Measured: T/C

C/C=C(/Cl)c1c(C)cc(C)c(CC(=O)O)c1C
inactive: [1] 92 % of control | dose: 130.0 mg/kg/injection, schedule: Q01DX009 (ip), vehicle: Klucel (hydroxypropylcellulose) (HPC) 110 % of control | dose: 200.0 mg/kg/injection, schedule: Q01DX009 (ip), vehicle: Klucel (hydroxypropylcellulose) (HPC) 114 % of control | dose: 200.0 mg/kg/injection, schedule: Q04DX003 (ip), vehicle: Klucel (hydroxypropylcellulose) (HPC) 90 % of control | dose: 400.0 mg/kg/injection, schedule: Q04DX003 (ip), vehicle: Klucel (hydroxypropylcellulose) (HPC) 105 % of control

C=C1C(=O)O[C@@H]2/C=C(/C)[C@@]3(O)C=C[C@](C)(C[C@@H](OC(=O)/C(=C\C)COC(C)=O)[C@@H]12)O3
inactive: dose: 0.06 mg/kg/injection, schedule: Q01DX009 (ip), vehicle: carboxymethylcellulose (CMC) 102 % of control | dose: 0.12 mg/kg/injection, schedule: Q01DX009 (ip), vehicle: carboxymethylcellulose (CMC) 101 % of control | dose: 0.25 mg/kg/injection, schedule: Q01DX009 (ip), vehicle: carboxymethylcellulose (CMC) 98 % of control

CN=C(C)C1=C(O)C(CC(=O)OC)N(C)C1=O (configuration not stated)
inactive: [2] 103 % of control | [3] 102 % of control | [4] 96 % of control

COc1cc2cc(C)c(I)cc2cc1OC
inactive: dose: 75.0 mg/kg/injection, schedule: Q04DX003 (ip), vehicle: Klucel (hydroxypropylcellulose) (HPC) 97 % of control | dose: 150.0 mg/kg/injection, schedule: Q04DX003 (ip), vehicle: Klucel (hydroxypropylcellulose) (HPC) 97 % of control | dose: 300.0 mg/kg/injection, schedule: Q04DX003 (ip), vehicle: Klucel (hydroxypropylcellulose) (HPC) 103 % of control

Cc1cc(C(C)(C)c2ccc(O)c(C)c2)ccc1O
inactive: [5] 97 % of control | [6] 97 % of control | dose: 100.0 mg/kg/injection, schedule: Q04DX003 (ip), vehicle: saline with Tween-80 100 % of control | [7] 94 % of control | dose: 200.0 mg/kg/injection, schedule: Q04DX003 (ip), vehicle: saline with Tween-80 102 % of control | dose: 400.0 mg/kg/injection, schedule: Q04DX003 (ip), vehicle: saline with Tween-80 107 % of control

CC(O)C(F)(F)C(F)(F)C(F)(F)C(C)O (configuration not stated)
inactive: [6] 97 % of control | [2] 102 % of control | [7] 104 % of control | [3] 96 % of control | [8] 109 % of control | [4] 96 % of control

Clc1ccccc1/C=C1\c2ccc(Br)cc2-c2cccc[n+]21
inactive: dose: 75.0 mg/kg/injection, schedule: Q01DX001 (ip), vehicle: other 87 % of control

COC(=O)c1nnn(S(=O)(=O)c2ccc(C)cc2)c1C(=O)OC
inactive: [9] 91 % of control | [10] 95 % of control | [11] 91 % of control

CCCNCCCCCCNCCC
inactive: [2] 98 % of control

Nc1ccc(-c2ccc(NC(=O)C(=O)O)cc2)cc1
inactive: dose: 12.5 mg/kg/injection, schedule: Q04DX003 (ip), vehicle: Klucel (hydroxypropylcellulose) (HPC) 101 % of control | dose: 25.0 mg/kg/injection, schedule: Q01DX009 (ip), vehicle: Klucel (hydroxypropylcellulose) (HPC) 95 % of control | dose: 25.0 mg/kg/injection, schedule: Q04DX003 (ip), vehicle: Klucel (hydroxypropylcellulose) (HPC) 97 % of control | dose: 50.0 mg/kg/injection, schedule: Q01DX009 (ip), vehicle: Klucel (hydroxypropylcellulose) (HPC) 97 % of control | dose: 50.0 mg/kg/injection, schedule: Q04DX003 (ip), vehicle: Klucel (hydroxypropylcellulose) (HPC) 111 % of control | dose: 100.0 mg/kg/injection, schedule: Q01DX009 (ip), vehicle: Klucel (hydroxypropylcellulose) (HPC) 100 % of control | [1] 111 % of control

N#CCCCOc1cccc(N)c1
inactive: dose: 100.0 mg/kg/injection, schedule: Q01DX001 (ip), vehicle: saline 101 % of control | dose: 200.0 mg/kg/injection, schedule: Q01DX001 (ip), vehicle: saline 101 % of control | dose: 400.0 mg/kg/injection, schedule: Q01DX001 (ip), vehicle: saline 101 % of control

O=[N+]([O-])c1ccc2cnn(C[N+]34CN5CN(CN(C5)C3)C4)c2c1
inactive: dose: 100.0 mg/kg/injection, schedule: Q01DX001 (ip), vehicle: other 103 % of control | dose: 200.0 mg/kg/injection, schedule: Q01DX001 (ip), vehicle: other 100 % of control | dose: 400.0 mg/kg/injection, schedule: Q01DX001 (ip), vehicle: other 111 % of control

CC1CCc2cc3ccccc3nc21 (configuration not stated)
inactive: [12] 104 % of control | [13] 104 % of control | [14] 112 % of control

O=P1(Nc2ccccc2)OCCCN1Cc1ccccc1Cl (configuration not stated)
inactive: dose: 50.0 mg/kg/injection, schedule: Q01DX001 (ip), vehicle: carboxymethylcellulose (CMC) 98 % of control | dose: 100.0 mg/kg/injection, schedule: Q01DX001 (ip), vehicle: carboxymethylcellulose (CMC) 98 % of control | dose: 200.0 mg/kg/injection, schedule: Q01DX001 (ip), vehicle: carboxymethylcellulose (CMC) 98 % of control | dose: 400.0 mg/kg/injection, schedule: Q01DX001 (ip), vehicle: carboxymethylcellulose (CMC) 93 % of control

Cc1cc(C)cc(CCc2cc(C)cc(C)c2)c1
inactive: dose: 100.0 mg/kg/injection, schedule: Q01DX001 (ip), vehicle: saline with Tween-80 95 % of control | [13] 88 % of control | dose: 200.0 mg/kg/injection, schedule: Q01DX001 (ip), vehicle: saline with Tween-80 94 % of control | [14] 95 % of control | dose: 400.0 mg/kg/injection, schedule: Q01DX001 (ip), vehicle: saline with Tween-80 89 % of control | dose: 400.0 mg/kg/injection, schedule: Q01DX009 (ip), vehicle: saline with Tween-80 95 % of control

C=Cc1ccc(Oc2ccccc2)cc1
inactive: [12] 98 % of control | [13] 112 % of control

COC(=O)c1ccccc1NC(=O)Nc1cccc(C(F)(F)F)c1
inactive: [9] 101 % of control | [10] 92 % of control | [11] 105 % of control

C/C(C(=O)O)=C(\C)C(=O)O
inactive: [6] 104 % of control | dose: 100.0 mg/kg/injection, schedule: Q04DX002 (ip), vehicle: saline 108 % of control | [7] 97 % of control | dose: 200.0 mg/kg/injection, schedule: Q04DX002 (ip), vehicle: saline 104 % of control | [8] 108 % of control | dose: 400.0 mg/kg/injection, schedule: Q04DX002 (ip), vehicle: saline 101 % of control

O=S(=O)(F)c1c(Cl)cccc1C[P+](c1ccccc1)(c1ccccc1)c1ccccc1
inactive: dose: 6.25 mg/kg/injection, schedule: Q01DX001 (ip), vehicle: saline with Tween-80 99 % of control | dose: 12.5 mg/kg/injection, schedule: Q01DX001 (ip), vehicle: saline with Tween-80 100 % of control | dose: 25.0 mg/kg/injection, schedule: Q01DX001 (ip), vehicle: saline 105 % of control

O=S(=O)(c1ccccc1)C1C2C=CC(O2)C1S(=O)(=O)c1ccccc1 (configuration not stated)
inactive: [9] 91 % of control | [10] 93 % of control | [11] 93 % of control

CC(=O)[S][Pb]([c]1ccccc1)([c]1ccccc1)[c]1ccccc1
inactive: dose: 1.0 mg/kg/injection, schedule: Q01DX009 (ip), vehicle: saline 93 % of control | dose: 2.0 mg/kg/injection, schedule: Q01DX009 (ip), vehicle: saline 93 % of control | dose: 4.0 mg/kg/injection, schedule: Q01DX009 (ip), vehicle: saline 95 % of control and 100 % of control | dose: 5.9 mg/kg/injection, schedule: Q01DX009 (ip), vehicle: saline 86 % of control

CCCCN(C(=O)O)P(=O)(OCC)OCC
inactive: [5] 101 % of control | [6] 103 % of control | [7] 109 % of control | [8] 97 % of control
